Test results: patent US12577245B2, “Sulfonyl benzamide derivatives as Bcl-2 inhibitors” (ASCENTAGE PHARMA (SUZHOU) CO., LTD., priority 2021, dated 2026)

How the values were obtained:
MV-4-11 cells = assay: CCK-8 cell viability assay in MV-4-11 cells; assay type: cell-based; conditions: Homo sapiens, MV4-11, 72 h, 10% FBS, 3 days
Description: MV-4-11 cells were obtained from University of Michigan. Cells were maintained in the RPMI-1640 medium with 10% FBS and 1% P/S at 37° C. and an atmosphere of 5% CO2.
• The effect of representative Compounds of the Disclosure on cell viability was determined using Cell Counting Kit-8 (CCK-8) assay (Shanghai Life iLab Biotech) according to the manufacturer's instructions. Each tested compound was serially diluted in culture medium, and 100 μL of the compound dilution was added to the corresponding well of the cell plate. 100 μL of MV-4-11 cell suspension (20000 cells/well) in culture medium were seeded into 96-well plates. The cells were incubated at 37° C. in an atmosphere of 5% CO2 for 3 days. At the end of 3 days, 20 μL of CCK-8 solution was added to each well of the plate and incubated for 1-4 hours. The plates were read at 450 nm on the Biotek plate reader. The readings were normalized to the vehicle cells, and the IC50 was calculated using GraphPad Prism 8 software.

RS4; 11Bcl-2-G101V cells = assay: CellTiter-Glo (CTG) cell viability assay in RS4;11-Bcl-2-G101V cells; assay type: cell-based; conditions: 72 h, 10% FBS, 3 days
Description: RS4; 11Bcl-2-G101V, RS4; 11Bcl-2-D103E, RS4; 11Bcl-2-V156D and RS4; 11Bcl-2-G101V-D103E cells were obtained from Cobioer Biosciences. Cells were maintained in the RPMI-1640 medium with 10% FBS, 1% P/S and puromycin (1 μg/mL) at 37° C. and an atmosphere of 5% CO2.
• The effect of representative Compounds of the Disclosure on cell viability was determined using CellTiter-Glo® (CTG) luminescent cell viability assay (Promega, USA) according to the manufacturer's instructions. 95 μL of cell suspension (10000 cells/well) in culture medium were seeded into 96-well plates and cultured 4 hours. Each tested compound was serially diluted in blank culture medium, and 5 μL of the compound dilution was added to the corresponding well of the cell plate. After the addition of the tested compound, the cells were incubated at 37° C. in an atmosphere of 5% CO2 for 3 days. At the end of 3 days, 30 μL of CTG solution was added to each well of the plate and mix contents for 2 minutes on an orbital shaker. Allow the plate to incubate at room temperature for 15 mins to stabilize signal and record RLU on the Biotek plate reader. The readings were normalized to the vehicle cells, and the IC50 was calculated using GraphPad Prism 8 software.

Compound | IC50 (MV-4-11 cells) [nM] | IC50 (RS4; 11Bcl-2-G101V cells) [nM]
Cc1ccsc1C1=C(CN2CCN(c3ccc(C(=O)NS(=O)(=O)c4ccc(NCC5CCOCC5)c([N+](=O)[O-])c4)c(Oc4cnc5[nH]ccc5c4)c3)CC2)CCC(C)(C)C1 [Example 4, 2-((1H-pyrrolo[2,3-b]pyridin-5-yl)oxy)-4-(4-((4,4-dimethyl-2-(3-methylthiophen-2-yl)cyclohex-1-en-1-yl)methyl)piperazin-1-yl)-N-((3-nitro-4-(((tetrahydro-2H-pyran-4-yl)methyl)amino)phenyl)sulfonyl)benzamide] | 54 | 3250
Cc1csc(C2=C(CN3CCN(c4ccc(C(=O)NS(=O)(=O)c5ccc(NCC6CCOCC6)c([N+](=O)[O-])c5)c(Oc5cnc6[nH]ccc6c5)c4)CC3)CCC(C)(C)C2)c1 [Example 5, 2-((1H-pyrrolo[2,3-b]pyridin-5-yl)oxy)-4-(4-((4,4-dimethyl-2-(4-methylthiophen-2-yl)cyclohex-1-en-1-yl)methyl)piperazin-1-yl)-N-((3-nitro-4-(((tetrahydro-2H-pyran-4-yl)methyl)amino)phenyl)sulfonyl)benzamide] | 79 | 3820
CC(C)c1ccc(C2=C(CN3CCN(c4ccc(C(=O)NS(=O)(=O)c5ccc(NCC6CCOCC6)c([N+](=O)[O-])c5)c(Oc5cnc6[nH]ccc6c5)c4)CC3)CCC(C)(C)C2)s1 [Example 12, 2-((1H-pyrrolo[2,3-b]pyridin-5-yl)oxy)-4-(4-((2-(5-isopropylthiophen-2-yl)-4,4-dimethylcyclohex-1-en-1-yl)methyl)piperazin-1-yl)-N-((3-nitro-4-(((tetrahydro-2H-pyran-4-yl)methyl)amino)phenyl)sulfonyl)benzamide] | 164 | 4030
CC(C)c1ccc(C2=C(CN3CCN(c4ccc(C(=O)NS(=O)(=O)c5ccc(NC[C@H]6COCCO6)c([N+](=O)[O-])c5)c(Oc5cnc6[nH]ccc6c5)c4)CC3)CCC(C)(C)C2)s1 [Example 14, (S)—N-((4-(((1,4-dioxan-2-yl)methyl)amino)-3-nitrophenyl)sulfonyl)-2-((1H-pyrrolo[2,3-b]pyridin-5-yl)oxy)-4-(4-((2-(5-isopropylthiophen-2-yl)-4,4-dimethylcyclohex-1-en-1-yl)methyl)piperazin-1-yl)benzamide] | 98 | 2660

Results, then the compound that gave them:

IC50 (MV-4-11 cells) [nM] | IC50 (RS4; 11Bcl-2-G101V cells) [nM] | Compound
209 | 4270 | CC(C)c1cscc1C1=C(CN2CCN(c3ccc(C(=O)NS(=O)(=O)c4ccc(NCC5CCOCC5)c([N+](=O)[O-])c4)c(Oc4cnc5[nH]ccc5c4)c3)CC2)CCC(C)(C)C1 [Example 7, 2-((1H-pyrrolo[2,3-b]pyridin-5-yl)oxy)-4-(4-((2-(4-isopropylthiophen-3-yl)-4,4-dimethylcyclohex-1-en-1-yl)methyl)piperazin-1-yl)-N-((3-nitro-4-(((tetrahydro-2H-pyran-4-yl)methyl)amino)phenyl)sulfonyl)benzamide]
167 | 5420 | CC(C)c1cscc1C1=C(CN2CCN(c3ccc(C(=O)NS(=O)(=O)c4ccc(NC[C@H]5COCCO5)c([N+](=O)[O-])c4)c(Oc4cnc5[nH]ccc5c4)c3)CC2)CCC(C)(C)C1 [Example 9, (S)—N-((4-(((1,4-dioxan-2-yl)methyl)amino)-3-nitrophenyl)sulfonyl)-2-((1H-pyrrolo[2,3-b]pyridin-5-yl)oxy)-4-(4-((2-(4-isopropylthiophen-3-yl)-4,4-dimethylcyclohex-1-en-1-yl)methyl)piperazin-1-yl)benzamide]
25 | 1790 | CC(C)c1sccc1C1=C(CN2CCN(c3ccc(C(=O)NS(=O)(=O)c4ccc(NC[C@H]5COCCO5)c([N+](=O)[O-])c4)c(Oc4cnc5[nH]ccc5c4)c3)CC2)CCC(C)(C)C1 [Example 13, (S)—N-((4-(((1,4-dioxan-2-yl)methyl)amino)-3-nitrophenyl)sulfonyl)-2-((1H-pyrrolo[2,3-b]pyridin-5-yl)oxy)-4-(4-((2-(2-isopropylthiophen-3-yl)-4,4-dimethylcyclohex-1-en-1-yl)methyl)piperazin-1-yl)benzamide]
